Structures are written as SMILES. Values after ≈ are worked out from the molar mass of the structure shown.

Data set [1] has as its target T1, Dual specificity mitogen-activated protein kinase kinase 1 (Homo sapiens, UniProt Q02750). Conditions: time 120.0 min.
Data set [2] in a line: Permeability in PBS at pH 6.8 incubated for 5 hrs by PAMPA method. It is filed as ADME. Conditions: pH 6.8, 5 h.
A short description of data set [3]: Solubility of compound in water at pH 6.8 by shake flask method based HPLC/UV analysis. The class given is physicochemical.
Data set [4] can be described thus: Octanol-water partition coefficient, logP of the compound by LC-MS analysis. It is filed as physicochemical.
A short description of data set [5]: Solubility of compound in FaSSIF at pH 6.8 by shake flask method based HPLC/UV analysis. It is filed as physicochemical.
The target in data set [6] is T1, Dual specificity mitogen-activated protein kinase kinase 1. Description: Inhibition of full-length human MEK1 by TR-FRET assay. In general terms: In TR-FRET formats the signal depends on donor and acceptor labels being close together.
Data set [7] is described as follows: Inhibition of ERK phosphorylation in human A-375 cells incubated for 3 hrs by DELFIA assay. The class given is cell-based. Conditions: A-375, 3 h.
In another data set the target is Cytochrome P450 3A4 (Homo sapiens, UniProt P08684). The data set is described as follows: Inhibition of CYP3A4 (unknown origin). The class given is ADME.
The nature of data set [8]: Dissociation constant, pKa of compound. The class given is physicochemical.
The nature of data set [9]: Clearance in Wistar rat at 3 mg/kg, iv measured up to 24 hrs by LC-MS/MS analysis. It is filed as ADME, organism-based. Conditions: in vivo.
Data set [10] can be described thus: Oral bioavailability in Wistar rat at 10 mg/kg measured up to 24 hrs by LC-MS/MS analysis. The class given is ADME, organism-based. Conditions: Wistar, in vivo.
A short description of data set [11]: Clearence in CD-1 mouse at 3 mg/kg, iv. The class given is ADME, organism-based. To be noted: in vivo.

Cytochrome P450 3A4, sequence (P08684 whole entry): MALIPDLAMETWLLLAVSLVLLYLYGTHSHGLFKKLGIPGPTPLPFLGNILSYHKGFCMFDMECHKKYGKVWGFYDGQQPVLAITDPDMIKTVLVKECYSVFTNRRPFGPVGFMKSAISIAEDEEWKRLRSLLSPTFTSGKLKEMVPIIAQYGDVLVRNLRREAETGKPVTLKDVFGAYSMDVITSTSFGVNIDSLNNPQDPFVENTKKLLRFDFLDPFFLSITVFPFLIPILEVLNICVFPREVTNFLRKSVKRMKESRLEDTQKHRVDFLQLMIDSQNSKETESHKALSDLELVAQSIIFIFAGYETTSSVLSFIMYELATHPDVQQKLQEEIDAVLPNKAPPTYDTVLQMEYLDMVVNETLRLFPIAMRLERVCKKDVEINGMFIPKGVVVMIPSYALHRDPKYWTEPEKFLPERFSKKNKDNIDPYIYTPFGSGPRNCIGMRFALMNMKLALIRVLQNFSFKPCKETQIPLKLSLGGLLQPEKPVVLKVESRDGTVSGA
T1 sequence (Q02750 whole entry): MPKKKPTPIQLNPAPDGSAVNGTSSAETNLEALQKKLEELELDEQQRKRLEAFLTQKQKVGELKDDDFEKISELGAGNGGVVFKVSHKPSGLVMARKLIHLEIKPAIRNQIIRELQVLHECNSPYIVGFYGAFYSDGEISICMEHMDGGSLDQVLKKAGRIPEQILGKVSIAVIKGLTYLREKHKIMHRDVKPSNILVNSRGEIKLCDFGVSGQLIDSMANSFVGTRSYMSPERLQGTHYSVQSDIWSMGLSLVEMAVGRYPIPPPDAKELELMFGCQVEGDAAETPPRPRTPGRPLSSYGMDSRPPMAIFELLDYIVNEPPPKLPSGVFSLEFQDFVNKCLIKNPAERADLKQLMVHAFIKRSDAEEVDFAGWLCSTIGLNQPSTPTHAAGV

In data set [1], `CC(=O)Nc1cccc(-n2c(=O)n(C3CC3)c(=O)c3c(Nc4ccc(I)cc4F)n(C)c(=O)c(C)c32)c1` displayed a T1/2 of 25 min.

The term solubility (thermodynamic) denotes solubility found after equilibrating the solid with the medium. By logP is commonly meant the decadic logarithm of the partition coefficient of the neutral form, usually between octanol and water. For `COc1cc(Oc2ncccn2)ccc1-c1cc2c(cc1F)ncc1nc(C(C)O)n(C3CCN(CC#N)CC3)c12` (stereo not given), the “log(permeability)” value in data set [2] is reported as -6.9. For the same compound, the results for the solubility (thermodynamic) in [3] and in data set [5] were 31 µM (≈ 17.2 µg/mL) and 42 µM (≈ 23.3 µg/mL), respectively. This compound also displayed a logP in data set [4] of 3.2.

Regarding `COc1cc(Oc2ccccn2)ccc1-c1cc2c(cc1F)ncc1nc(C(C)O)n(C3CCN(CC#N)CC3)c12` (stereo not given), the “log(permeability)” value in data set [2] is given as -4.6. The results for the solubility (thermodynamic) in [3] and in [5] were under 4 µM and 9 µM (≈ 4.97 µg/mL), respectively. In data set [4], this compound displayed a logP of 4.4.

One may read the IC50 as the concentration that gives 50% inhibition. A low value points to greater potency. One may read the EC50 as the concentration at which the effect is half-maximal. Take `N#CCc1ccc(-n2cnc3cnc4cc(F)c(-c5ccc6[nH]ccc6c5)cc4c32)cc1`: in data set [6], the IC50 stood at 2600 nM. In [7], this compound had an EC50 of 5800 nM.

Turning to `N#CCN1CCN(n2cnc3cnc4cc(F)c(-c5ccc(Oc6ncccn6)cc5Cl)cc4c32)CC1`, it took 120 nM to reach half-maximal inhibition in [7] (IC50). The compound also registered a logP in [4] of 3.2.

Turning to `N#CCN1CCC(n2c(CO)nc3cnc4cc(F)c(-c5ccc(Oc6ccccn6)cc5Cl)cc4c32)CC1`, in [2], the “log(permeability)” value was -4.5. The solubility (thermodynamic) in [3] and in [5] was under 4 µM each time. Further, the logP in data set [4] is 4.9.

The compound `COCC(=O)N1CC[C@H](n2c(C)nc3cnc4cc(F)c(-c5ccc(Oc6ncccn6)cc5Cl)cc4c32)[C@@H](F)C1` returned a logP in [4] of 3.2. The compound also displayed an IC50 against Cytochrome P450 3A4 of 5000 nM.

With `COc1cc(Oc2ncccn2)ccc1-c1cc2c(cc1F)ncc1nc(C)n(C3CCN(CC#N)CC3)c12`, the “log(permeability)” value in [2] is -4.5. For the same compound, the solubility (thermodynamic) came to 33 µM (≈ 17.3 µg/mL) in data set [3] and 221 µM (≈ 116 µg/mL) in data set [5]. Also, the logP in data set [4] worked out at 2.3.

As to `Cc1ccnc(Oc2ccc(-c3cc4c(cc3F)ncc3nc(C)n([C@H]5CCN(C(=O)CO)C[C@@H]5F)c34)c(Cl)c2)n1`, the EC50 in [7] turned out to be 7000 nM. The logP in [4] came to 2.6. The same compound had an IC50 on Cytochrome P450 3A4 of 2000 nM.

Turning to `N#CCN1CCC(n2c(CO)nc3cnc4cc(F)c(-c5ccc(Oc6ncccn6)cc5Cl)cc4c32)CC1`, the “log(permeability)” value in [2] is -5.3. Besides, the solubility (thermodynamic) in [3] was found to be 12 µM (≈ 6.53 µg/mL); in [5] it was 6 µM (≈ 3.26 µg/mL). The same compound displayed a logP in data set [4] of 3.5.

With `CC(O)c1nc2cnc3cc(F)c(-c4ccc(Oc5ccccn5)cc4Cl)cc3c2n1C1CCN(CC#N)CC1` (stereo not given), the “log(permeability)” value in [2] was -4.7. For the same compound, the thermodynamic solubility in data set [3] was under 4 µM; in data set [5], 22 µM (≈ 12.3 µg/mL).

On to `CC(O)c1nc2cnc3cc(F)c(-c4ccc(Oc5ncccn5)cc4Cl)cc3c2n1C1CCN(CC#N)CC1` (stereo not given), for which the “log(permeability)” value in data set [2] is on record as -4.7. Besides, the thermodynamic solubility is under 4 µM in data set [3] and 22 µM (≈ 12.3 µg/mL) in data set [5].

One may read the pKa as the negative logarithm of the acid dissociation constant. A higher pKa goes with a group that holds its proton tightly. Consider `OCCN1CCC(n2cnc3cnc4cc(F)c(-c5ccc(Oc6ccccn6)cc5Cl)cc4c32)CC1`, for which the “log(permeability)” value in [2] is -4.4. Moreover, the solubility (thermodynamic) in data set [3] turned out to be 67 µM (≈ 34.7 µg/mL). Moreover, the logP in data set [4] came out at 4.6. The compound further had a pKa in data set [8] of 6.9.

Turning to `Fc1cc2ncc3ncn(C4CCNCC4)c3c2cc1-c1ccc(Oc2ccccn2)cc1Cl`, in data set [2], the “log(permeability)” value was -4.5. The thermodynamic solubility in [3] was 47 µM (≈ 22.3 µg/mL). In addition, in data set [4], the logP was determined as 4.8. The same compound had a pKa in data set [8] of 8.4.

For `COc1cc(Oc2ccccn2)ccc1-c1cc2c(cc1F)ncc1nc(C)n(C3CCN(CC#N)CC3)c12`, the “log(permeability)” value in data set [2] was -3.9. In addition, the results for the solubility (thermodynamic) in data set [3] and in [5] were under 4 µM and 22 µM (≈ 11.5 µg/mL), respectively. This compound also yielded a logP in data set [4] of 4.6.

In the case of `CC(=O)N1CC[C@H](n2c(C)nc3cnc4cc(F)c(-c5ccc(Oc6ncccn6)cc5Cl)cc4c32)[C@@H](F)C1`, it took 64000 nM to reach a half-maximal effect in data set [7] (EC50).

Regarding `N#CCN1CCC(n2cnc3cnc4cc(F)c(-c5ccc(Oc6ccccn6)cc5Cl)cc4c32)CC1`, in data set [2], the “log(permeability)” value is given as -4.2. The same compound came in with an IC50 in [6] of 70 nM. For the same compound, the half-maximal effective concentration (EC50) in data set [7] was 400 nM. In addition, in [4], the logP was found to be 5.3. This compound returned a pKa in data set [8] of 4.1.

At Cytochrome P450 3A4, `Cc1nc2cnc3cc(F)c(-c4ccc(Oc5ncccn5)cc4Cl)cc3c2n1[C@H]1CC[C@](N)(CC#N)CC1` displayed an IC50 of 12100 nM.

Consider `Cc1nc2cnc3cc(F)c(-c4ccc(Oc5ncccn5)cc4Cl)cc3c2n1[C@H]1CC[C@@](N)(CC#N)CC1`, for which the logP in data set [4] stood at 1.2. On Cytochrome P450 3A4, this compound gave an IC50 of 1200 nM.

As usually defined, the clearance is the volume of plasma or blood freed of the substance per unit of time. A higher clearance goes with a high capacity for elimination. Usually bioavailability stands for dose-corrected exposure relative to a reference, in per cent. As to `N#CCc1ccc(-n2cnc3cnc4cc(F)c(-c5ccc(Oc6ccccn6)cc5Cl)cc4c32)cc1`, a half-maximal effect in data set [7] (EC50) was put at 3000 nM. The same compound returned an IC50 at Cytochrome P450 3A4 of under 500 nM. Further, the clearance in [9] was 8 mL/min/kg. Further, in data set [10], the bioavailability turned out to be 5%.

`Cc1nc2cnc3cc(F)c(-c4ccc(Oc5ccccn5)cc4Cl)cc3c2n1C1CCN(CC#N)CC1`: the “log(permeability)” value in data set [2] is -4.1. For the same compound, the thermodynamic solubility in data set [3] is under 4 µM; in [5], 175 µM (≈ 92.2 µg/mL). Also, the logP in data set [4] amounted to 5.1.

For the compound `COc1cc(Oc2ccccn2)ccc1-c1cc2c(cc1F)ncc1nc(CO)n(C3CCN(CC#N)CC3)c12`, the “log(permeability)” value in data set [2] was -5. Further, the results for the thermodynamic solubility in [3] and in data set [5] were under 4 µM and 7 µM (≈ 3.77 µg/mL), respectively. The compound also yielded a logP in [4] of 4.4.

On to `Cc1nc2cnc3cc(F)c(-c4ccc(Oc5ncccn5)cc4Cl)cc3c2n1C1CCN(CC#N)CC1`, for which the “log(permeability)” value in data set [2] is listed as -4.7. Besides, the values for the IC50 (in [7]; against Cytochrome P450 3A4) were 60 nM and 1600 nM, respectively. Moreover, the figures for the thermodynamic solubility in [3] and in data set [5] were 11 µM (≈ 5.81 µg/mL) and 106 µM (≈ 56 µg/mL), respectively. In data set [4], this compound yielded a logP of 3.3. In data set [9], this compound gave a clearance of 16 mL/min/kg. In data set [10], this compound gave a bioavailability of 0%.

In the case of `N#CCN1CCC(n2cnc3cnc4cc(F)c(-c5ccc(Oc6ncccn6)cc5Cl)cc4c32)CC1`, the “log(permeability)” value in data set [2] is on record as -4.5. In [4], this compound showed a logP of 3.

Take `CC1(n2cnc3cnc4cc(F)c(-c5ccc(Oc6ncccn6)cc5Cl)cc4c32)CCN(CC#N)CC1`: the IC50 in data set [7] was determined as 80 nM; at Cytochrome P450 3A4 it was 1500 nM. The compound further came in with a logP in data set [4] of 4.2. In [11], the clearance was 35 mL/min/kg.

`Cc1cc(Oc2ncccn2)ccc1-c1cc2c(cc1F)ncc1nc(C)n([C@H]3CCN(C(=O)CO)C[C@@H]3F)c12` returned an EC50 in data set [7] of 19000 nM. For the same compound, in [4], the lipophilicity (logP) came out at 2. Also, the IC50 at Cytochrome P450 3A4 was over 20000 nM.

In [4], `O=C(CO)N1CC[C@H](n2cnc3cnc4cc(F)c(-c5ccc(Oc6ncccn6)cc5Cl)cc4c32)[C@@H](F)C1` displayed a log partition coefficient (logP) of 2.3. At Cytochrome P450 3A4, this compound registered an IC50 of over 20000 nM.

With `CC1(n2cnc3cnc4cc(F)c(-c5ccc(Oc6ncccn6)cc5Cl)cc4c32)CCC(CC#N)CC1` (stereo not given), the logP in data set [4] was found to be 4.6. This compound also showed an IC50 at Cytochrome P450 3A4 of under 500 nM. Further, in data set [11], the clearance is 6 mL/min/kg.

With `COc1cc(Oc2ccccn2)ccc1-c1cc2c(cc1F)ncc1ncn(C3CCN(CC#N)CC3)c12`, the “log(permeability)” value in data set [2] is reported as -4.2. Also, in data set [4], the logP is 5.3.

Regarding `N#CC[C@]1(N)CC[C@@H](n2cnc3cnc4cc(F)c(-c5ccc(Oc6ncccn6)cc5Cl)cc4c32)CC1`, the logP in data set [4] was 5.7. The compound also had an IC50 on Cytochrome P450 3A4 of 5700 nM.

Values taken from ChEMBL document CHEMBL5046286, “Discovery of MAP855, an Efficacious and Selective MEK1/2 Inhibitor with an ATP-Competitive Mode of Action” (J Med Chem, 2022).
